{"source": "patent US20100221330A1", "about": "“BUOYANT FORMULATIONS OF BETAINE” (priority 2003, published 2010)", "origin": "cited, not measured here", "details": "human subjects, betaine supplementation"}
{"smiles": "C[N+](C)(C)CC(=O)O", "note": "[betaine]", "values": [{"measurement": "Effect on blood pressure", "result": "reduces the blood pressure, especially the diastolic pressure"}]}
